Experimental data reported in patent publication US7491794B2, “Macrocyclic compounds as inhibitors of viral replication” (Intermune, Inc., priority 2003, dated 2009).

Columns and labels:
[1] = system: HCV sub-genomic replicon, GS4.3; experiment: Quantitation by ELISA of NPTII in the HCV sub-genomic replicon, GS4.3, Section B; type: cell-based; conditions: Hepatitis C virus; GS4.3 cells, 72 h incubation; read-out: Replicon EC50
Text: Quantitation by ELISA of the Selectable Marker Protein, Neomycin Phosphotransferase II (NPTII) in the HCV Sub-Genomic Replicon, GS4.3
The HCV sub-genomic replicon (1377/NS3-3′, accession No. AJ242652), stably maintained in HuH-7 hepatoma cells, was created by Lohmann et al. Science 285: 110-113 (1999). The replicon-containing cell culture, designated GS4.3, was obtained from Dr. Christoph Seeger of the Institute for Cancer Research, Fox Chase Cancer Center, Philadelphia, Pa.
GS4.3 cells were maintained at 37° C., 5% CO2, in DMEM (Gibco 11965-092) supplemented with L-glutamine 200 mM (100×) (Gibco25030-081), non-essential amino acids (NEAA)(Biowhittaker 13-114E), heat-inactivated (HI) Fetal Bovine Serum(FBS)(Hyclone SH3007.03) and 750 μg/ml geneticin (G418)(Gibco 10131-035). Cells were sub-divided 1:3 or 4 every 2-3 days.
24 hours prior to the assay, GS4.3 cells were collected, counted, and plated in 96-well plates (Costar 3585) at 7500 cells/well in 100 μl standard maintenance medium (above) and incubated in the conditions above. To initiate the assay, culture medium was removed, cells were washed once with PBS (Gibco 10010-023) and 90 μl Assay Medium (DMEM, L-glutamine, NEAA, 10% HI FBS, no G418) was added. Inhibitors were made as a 10× stock in Assay Medium, (3-fold dilutions from 10 μM to […] final concentration, final DMSO concentration 1%), 10 μl were added to duplicate wells, plates were rocked to mix, and incubated as above for 72 h.
An NPTII ELISA kit was obtained from AGDIA, Inc. (Compound direct ELISA test system for Neomycin Phosphotransferase II, PSP 73000/4800). Manufacturer's instructions were followed, with some modifications. 10×PEB-1 lysis buffer was made up to include 500 μM PMSF (Sigma P7626, 50 mM stock in isopropanol). After 72 h incubation, cells were washed once with PBS and 150 μl PEB-1 with PMSF was added per well. Plates were agitated vigorously for 15 minutes, room temperature, then frozen at −70° C. Plates were thawed, lysates were mixed thoroughly, and 100 μl were applied to an NPTII Elisa plate. A standard curve was made. Lysate from DMSO-treated control cells was pooled, serially diluted with PEB-1 with PMSF, and applied to duplicate wells of the ELISA plate, in a range of initial lysate amount of 150u1-2.5 ul. In addition, 100 μl buffer alone was applied in duplicate as a blank. Plates were sealed and gently agitated at room temperature for 2 h. Following capture incubation, the plates were washed 5×300 μl with PBS-T (0.5% Tween-20, PBS-T was supplied in the ELISA kit). For detection, a 1× dilution of enzyme conjugate diluent MRS-2 (5×) was made in PBS-T, into which 1:100 dilutions of enzyme conjugates A and B were added, as per instructions. Plates were resealed, and incubated with agitation, covered, room temperature, for 2 h. The washing was then repeated and 100 μl of room temperature TMB substrate was added. After approximately 30 minutes incubation (room temperature, agitation, covered), the reaction was stopped with 50 μl 3M sulfuric acid. Plates were read at 450 nm on a Molecular Devices Versamax plate reader.
Inhibitor effect was expressed as a percentage of DMSO-treated control signal, and inhibition curves were calculated using a 4-parameter equation: y=A+((B−A)/(1+((C/x)^D))), where C is half-maximal activity or EC50.

[2] = target: T1, NS3-NS4A protease (Hepatitis C virus genotype 1a, UniProt P27958); experiment: NS3-NS4A protease assay (NS3 inhibition assay, RETS1 substrate), Section B; type: biochemical; conditions: read-out: NS3-NS4A IC50
T1 construct: Recombinant E. coli or Baculovirus full-length NS3 was diluted to 3.33 μM with assay buffer; made in house; host or cells: E. coli or baculovirus (BV) system
T1 sequence (P27958 1027-1657): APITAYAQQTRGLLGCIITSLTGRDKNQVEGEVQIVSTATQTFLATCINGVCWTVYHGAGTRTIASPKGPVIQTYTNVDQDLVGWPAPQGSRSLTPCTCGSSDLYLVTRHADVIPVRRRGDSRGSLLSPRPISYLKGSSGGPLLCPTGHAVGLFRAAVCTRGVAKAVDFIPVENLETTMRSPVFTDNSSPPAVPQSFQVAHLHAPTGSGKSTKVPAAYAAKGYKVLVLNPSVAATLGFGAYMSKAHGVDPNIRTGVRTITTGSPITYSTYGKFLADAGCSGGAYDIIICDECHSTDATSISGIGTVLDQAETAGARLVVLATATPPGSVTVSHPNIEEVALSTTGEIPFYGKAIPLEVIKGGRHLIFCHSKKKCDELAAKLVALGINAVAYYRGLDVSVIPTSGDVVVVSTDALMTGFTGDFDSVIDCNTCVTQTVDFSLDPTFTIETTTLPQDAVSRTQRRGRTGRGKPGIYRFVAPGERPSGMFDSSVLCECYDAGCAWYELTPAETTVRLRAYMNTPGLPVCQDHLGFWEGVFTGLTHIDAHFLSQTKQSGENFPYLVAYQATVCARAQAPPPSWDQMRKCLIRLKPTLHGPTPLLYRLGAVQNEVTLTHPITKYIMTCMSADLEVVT
Method in brief: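 Kinetic fluorescence read (335 nm excitation, 495 nm emission, 30 min) of RETS1 cleavage by NS3/NS4A-2 complex, 2 nM E. coli or 3 nM baculovirus NS3, after 10 min room-temperature compound pre-incubation. Four-parameter-fit IC50s converted to Ki by Cheng–Prusoff, Ki=IC50/(1+[S]/Km).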

| SMILES | EC50 [1] | IC50 [2] |
| --- | --- | --- |
| CC1CN(C(=O)O[C@@H]2C[C@H]3C(=O)N[C@]4(C(=O)NS(=O)(=O)C5CC5)C[C@H]4/C=C\CCCCC[C@H](NC(=O)NC(C)(C)C)C(=O)N3C2)Cc2ccccc21 (stereo partly drawn) [AR00314656, (1S,4R,6S,14S,18R)-4-Methyl-3,4-dihydro-1H-isoquinoline-2-carboxylic acid 14-(3-tert-butyl-ureido)-4-cyclopropanesulfonylaminocarbonyl-2,15-dioxo-3,16-diaza-tricyclo[14.3.0.0^4,6]nonadec-7-en-18-yl ester] | < 100 nM | < 100 nM |
| O=C(NC1CCCC1)N[C@H]1CCCCC/C=C\[C@@H]2C[C@@]2(C(=O)NS(=O)(=O)C2CC2)NC(=O)[C@@H]2C[C@@H](OC(=O)N3Cc4cc(Cl)c(Cl)cc4C3)CN2C1=O [AR00320575, (1S,4R,6S,14S,18R)-5,6-Dichloro-1,3-dihydro-isoindole-2-carboxylic acid 14-(3-cyclopentyl-ureido)-4-cyclopropanesulfonylaminocarbonyl-2,15-dioxo-3,16-diaza-tricyclo[14.3.0.0^4,6]nonadec-7-en-18-yl ester] | < 1000 nM | < 100 nM |
| COc1ccc(S(=O)(=O)NC(=O)[C@@]23C[C@H]2/C=C\CCCCC[C@H](NC(=O)OC(C)(C)C)C(=O)N2C[C@H](OC(=O)N4Cc5ccccc5C4)C[C@H]2C(=O)N3)cc1 [AR00334341, (1S,4R,6S,14S,18R)-1,3-Dihydro-isoindole-2-carboxylic acid 14-tert-butoxycarbonylamino-4-(4-methoxy-benzenesulfonylaminocarbonyl)-2,15-dioxo-3,16-diaza-tricyclo[14.3.0.0^4,6]nonadec-7-en-18-yl ester] | < 100 nM | < 100 nM |
| CC(C)(C)OC(=O)N[C@H]1CCCCC/C=C\[C@@H]2C[C@@]2(C(=O)NS(=O)(=O)C2CC2)NC(=O)[C@@H]2C[C@@H](OC(=O)N3Cc4ccc(Br)cc4C3)CN2C1=O [AR00340526, (1S,4R,6S,14S,18R)-5-Bromo-1,3-dihydro-isoindole-2-carboxylic acid 14-tert-butoxycarbonylamino-4-cyclopropanesulfonylaminocarbonyl-2,15-dioxo-3,16-diaza-tricyclo[14.3.0.0^4,6]nonadec-7-en-18-yl ester] | < 100 nM | < 100 nM |
| CC(C)(C)OC(=O)N[C@H]1CCCCC/C=C\[C@@H]2C[C@@]2(C(=O)NS(=O)(=O)C2CC2)NC(=O)[C@@H]2C[C@@H](OC(=O)N3Cc4cccc(F)c4C3)CN2C1=O [AR00334191, (1S,4R,6S,14S,18R)-4-Fluoro-1,3-dihydro-isoindole-2-carboxylic acid 14-tert-butoxycarbonylamino-4-cyclopropanesulfonylaminocarbonyl-2,15-dioxo-3,16-diaza-tricyclo[14.3.0.0^4,6]nonadec-7-en-18-yl ester] | < 100 nM | < 100 nM |
| CC(C)(C)OC(=O)N[C@H]1CCCCC/C=C\[C@@H]2C[C@@]2(C(=O)NS(=O)(=O)C2CC2)NC(=O)[C@@H]2C[C@@H](OC(=O)N3Cc4cc(Cl)c(Cl)cc4C3)CN2C1=O [AR00320121, (1S,4R,6S,14S,18R)-5,6-Dichloro-1,3-dihydro-isoindole-2-carboxylic acid 14-tert-butoxycarbonylamino-4-cyclopropanesulfonylaminocarbonyl-2,15-dioxo-3,16-diaza-tricyclo[14.3.0.0^4,6]nonadec-7-en-18-yl ester] | < 100 nM | < 100 nM |
| CC(C)NCCOc1ccc2c(c1)CN(C(=O)O[C@@H]1C[C@H]3C(=O)N[C@]4(C(=O)NS(=O)(=O)C5CC5)C[C@H]4/C=C\CCCCC[C@H](NC(=O)OC(C)(C)C)C(=O)N3C1)C2 [AR00345094, (1S,4R,6S,14S,18R)-5-(2-Isopropylamino-ethoxy)-1,3-dihydro-isoindole-2-carboxylic acid 14-tert-butoxycarbonylamino-4-cyclopropanesulfonylaminocarbonyl-2,15-dioxo-3,16-diaza-tricyclo[14.3.0.0^4,6]nonadec-7-en-18-yl ester] | < 100 nM | < 100 nM |
| COCC1c2cccc(F)c2CCN1C(=O)O[C@@H]1CC2C(=O)N[C@]3(C(=O)O)C[C@H]3/C=C\CCCCC[C@H](NC(=O)OC3CCCC3)C(=O)N2C1 (stereo partly drawn) [AR00365381, (1S,4R,6S,14S,18R)-14-Cyclopentyloxycarbonylamino-18-(5-fluoro-1-methoxymethyl-3,4-dihydro-1H-isoquinoline-2-carbonyloxy)-2,15-dioxo-3,16-diaza-tricyclo[14.3.0.0^4,6]nonadec-7-ene-4-carboxylic acid] | < 1000 nM | < 1000 nM |
| CN(C)c1ccc(S(=O)(=O)NC(=O)[C@@]23C[C@H]2/C=C\CCCCC[C@H](NC(=O)OC(C)(C)C)C(=O)N2C[C@H](OC(=O)N4Cc5ccccc5C4)C[C@H]2C(=O)N3)cc1 [AR00365572, (1S,4R,6S,14S,18R)-1,3-Dihydro-isoindole-2-carboxylic acid 14-tert-butoxycarbonylamino-4-(4-dimethylamino-benzenesulfonylaminocarbonyl)-2,15-dioxo-3,16-diaza-tricyclo[14.3.0.0^4,6]nonadec-7-en-18-yl ester] | < 100 nM | < 100 nM |
| O=C(N[C@H]1CCCCC/C=C\[C@@H]2C[C@@]2(C(=O)O)NC(=O)[C@@H]2C[C@@H](OC(=O)N3Cc4ccccc4C3)CN2C1=O)O[C@@H]1CCOC1 [AR00320074, (1S,4R,6S,14S,18R)-18-(1,3-Dihydro-isoindole-2-carbonyloxy)-2,15-dioxo-14-(tetrahydro-furan-3R-yloxycarbonylamino)-3,16-diaza-tricyclo[14.3.0.0^4,6]nonadec-7-ene-4-carboxylic acid] | < 10000 nM | < 100 nM |
| CC(C)(C)OC(=O)N[C@H]1CCCCC/C=C\[C@@H]2C[C@@]2(C(=O)NS(=O)(=O)c2ccc(C(=O)O)cc2)NC(=O)[C@@H]2C[C@@H](OC(=O)N3Cc4ccccc4C3)CN2C1=O [AR00365387, (1S,4R,6S,14S,18R)-1,3-Dihydro-isoindole-2-carboxylic acid 14-tert-butoxycarbonylamino-4-(4-carboxy-benzenesulfonylaminocarbonyl)-2,15-dioxo-3,16-diaza-tricyclo[14.3.0.0^4,6]nonadec-7-en-18-yl ester] | < 100 nM | < 100 nM |
| CC(C)(C)OC(=O)N[C@H]1CCCCC/C=C\[C@@H]2C[C@@]2(C(=O)O)NC(=O)[C@@H]2C[C@@H](OC(=O)N3CCc4c(F)cccc4C3)CN2C1=O [AR00294384, (1S,4R,6S,14S,18R)-14-tert-Butoxycarbonylamino-18-(5-fluoro-3,4-dihydro-1H-isoquinoline-2-carbonyloxy)-2,15-dioxo-3,16-diaza-tricyclo[14.3.0.0^4,6]nonadec-7-ene-4-carboxylic acid] | < 10000 nM | < 1000 nM |
| CC(C)(C)NC(=O)N[C@H]1CCCCC/C=C\[C@@H]2C[C@@]2(C(=O)NS(=O)(=O)C2CC2)NC(=O)[C@@H]2C[C@@H](OC(=O)N3Cc4cccc(F)c4C3)CN2C1=O [AR00338066, (1S,4R,6S,14S,18R)-4-Fluoro-1,3-dihydro-isoindole-2-carboxylic acid 14-(3-tert-butyl-ureido)-4-cyclopropanesulfonylaminocarbonyl-2,15-dioxo-3,16-diaza-tricyclo[14.3.0.0^4,6]nonadec-7-en-18-yl ester] | < 100 nM | < 100 nM |
